Test results reported in US20060084599A1, “Compositions, methods and kits relating to notch signaling” (Maine Medical Center, priority 2003, published 2006).

B1: sDl1: soluble non-transmembrane form (extracellular domain) of the Notch ligand Delta1 (protein)
chain: QVWSSGVFELKLQEFVNKKGLLGNRNCCRGGAGPPPCACRTFFRVCLKHYQASVSPEPPCTYGSAVTPVLGVDSFSLPDGGGADSAFSNPIRFPFGFTWPGTFSLIIEALHTDSPDDLATENPERLISRLATQRHLTVGEEWSQDLHSSGRTDLKYSYRFVCDEHYYGEGCSVFCRPRDDAFGHFTCGERGEKVCNPGWKGPYCTEPICLPGCDEQHGFCDKPGECKCRVGWQGRYCDECIRYPGCLHGTCQQPWQCNCQEGWGGLFCNQDLNYCTHHKPCKNGATCTNTGQGSYTCSCRPGYTGATCELGIDECDPSPCKNGGSCTDLENSYSCTCPPGFYGKICELSAMTCADGPCFNGGRCSDSPDGGYSCRCPVGYSGFNCEKKIDYCSSSPCSNGAKCVDLGDAYLCRCQAGFSGRHCDDNVDDCASSPCANGGTCRDGVNDFSCTCPPGYTGRNCSAPVSRCEHAPCHNGATCHERGHRYVCECARGYGGPNCQFLLPELPPGPAVVDLTEKLEGQGGPFPW
modifications: left off: small tags and cut ends
notes: soluble non-transmembrane form (extracellular domain) of the Notch ligand Delta1

How the values were obtained:
CBF1-responsive promoter = test: Dual luciferase assay of CSL-dependent transcription (Example 3); type: cell-based, mouse; details: NIH 3T3 cells and N1IC NIH 3T3 cells expressing the ligand
Experimental: Dual Luciferase Assay. CSL-dependent transcription was quantitated as previously described (Small et al., 2001, J. Biol. Chem. 276:32022-32030; Small et al., 2003, J. Biol. Chem. 278:16405-16413). Briefly, approximately 5×10^4 cells representing insert-less vector control, sDl1, sJ1, dominant-negative Notch1 (dnN1), dominant-negative Notch2 (dnN2) (Small et al., 2001, J. Biol. Chem. 276:32022-32030), sDl1/dnSrc and sJ1/dnSrc stable NIH 3T3 cell transfectants were plated on 12-well plastic plates (Falcon) coated with fibronectin (10 μg/cm^2). The cells were transiently transfected at 60% confluence with 500 ng of the CBF1-responsive Luciferase construct (Small et al., 2001, J. Biol. Chem. 276:32022-32030) and 100 ng of a Renilla SV40 construct (Promega) which was utilized as an internal control for transfection efficiency. Gene Juice (Novagen) was used as a transfection reagent. Some of the samples also contained 200 ng of a DNA construct encoding the truncated intracellular constitutively active form of Notch1 (N1IC) (Small et al., 2001, J. Biol. Chem. 276:32022-32030). […] Individual assays were performed in triplicate and the Luciferase/Renilla activity was measured using Dual-Luciferase Reporter Assay System (Promega) 48 hrs following the transient transfection.

[1] = system: FGF gene family transcripts; test: RT-PCR of FGF gene family expression; type: cell-based, murine; details: stable NIH 3T3 cell transfectants expressing the ligand
Experimental: Total RNA from vector control, sJ1, caN1 and dnN1 stable transfectants was isolated using Tri Reagent™ (Sigma) according to the manufacturer's protocol. cDNA was obtained from 5 μg total RNA with SuperScript™ (Invitrogen) reverse transcriptase using an oligo dT primer (Invitrogen). The following specific primers were purchased from IDT and used for RT-PCR analysis. Sense primers are indicated by (s); Antisense primers are indicated by (as): […]
PCR amplification was performed for 45 cycles as follows: 40 seconds at 94° C., 40 seconds at 50° C. (for FGF2, FGF3, FGF4 and FGFR3) or at 55° C. (for FGF6, FGF7, FGF8, FGF9, FGF10, FGFR1 and FGFR2), 1 minute at 72° C. For FGF5, RT-PCR analysis was performed as described (Ozawa et al., 1998, J. Biol. Chem. 273: 29262-29271) and all amplified DNA was visualized with ethidium bromide on 1.5% agarose gels.

[2] = system: NIH 3T3 stable transfectants; test: FGF1 release in stable NIH 3T3 cell transfectants (Example 1); type: cell-based, murine; details: sJ1 stable transfectants transduced with FGF1 adenovirus, 37° C.
Experimental: Adenovirus vector expressing lacZ, FGF1, caN1, dnN1, caN2 or dnN2 was prepared as described (Hardy et al., 1997, J. Virol. 71: 1842-1849) at a titer of approximately 10^12 viral particles/ml. For adenoviral transduction, NIH 3T3 stable transfectants were incubated in serum-free medium with approximately […] viral particles/cell in the presence of poly-D-lysine hydrobromide (Sigma) (5×10^3 molecules/viral particle) for two hours at 37° C., after which the adenovirus-containing media was removed and replaced with serum-containing medium (10% BCS) for an additional 24 hours. The transduced cells were harvested by trypsin digestion and seeded for the heat shock experiments as previously described (Jackson et al., 1992, Proc. Natl. Acad. Sci. USA 89: 10691-10695). After heat shock, the conditioned media from cells exposed to either 37° C. (normal conditions) or 42° C. (heat shock conditions) were treated with 0.1% DTT for 2 hours at 37° C., adsorbed to heparin-Sepharose and eluted from the column with 1.5 M NaCl. The eluants were resolved by 15% (w/v) SDS-PAGE and evaluated by FGF1 immunoblot analysis as described (Jackson et al., 1992, Proc. Natl. Acad. Sci. USA 89: 10691-10695).

[3] = system: NIH 3T3 cell transfectants; test: Anchorage-dependent cell growth assay; type: cell-based, mouse; details: stable NIH 3T3 cell transfectants, 10% BCS
Experimental: Anchorage-Dependent and -Independent Cell Growth Assays. Approximately 3×10^4 cells were plated on fibronectin (10 μg/cm^2)-coated in 12-well cell culture dishes (Falcon) in DMEM containing 10% BCS (v/v) (Hyclone). Three wells of the individual NIH 3T3 cell transfectants were harvested every third day and cell number was quantitated using a hemocytometer. Anchorage-independent cell growth was evaluated by plating in duplicate approximately 1.7×10^3 cells in DMEM containing 0.5% (w/v) agar (Sigma) 10% (v/v) BCS into 5 cm plastic dishes (Falcon) as previously described (Small et al., 2003, J. Biol. Chem. 278:16405-16413).

| Molecule | transactivation of the CBF1-responsive promoter (CBF1-responsive promoter) | FGF gene family mRNA expression in transfectants [1] | FGF1 release under normal growth conditions [2] | growth kinetics at high cell density [3] |
| --- | --- | --- | --- | --- |
| sJ1: Soluble Jagged1, amino acid residues about 1 to 1067 (SEQ ID NO:3) of full-length human Jagged1 | inhibited the transactivation of the CBF1-responsive promoter | expression of mRNAs encoding FGF1, FGF3, FGF4, and FGF5 | significant release of FGF1 at 37 °C | impaired contact inhibition of growth |
| B1 | inhibited the transactivation of the CBF1-responsive promoter | express the FGF3, FGF4 and FGF9 transcripts | – | impaired contact inhibition of growth |
